Assay results taken from patent US7759392B2, “Pharmaceutical compounds” (Nicox S.A., priority 1999, dated 2010).
“Also recorded” adds a separate entry of the source.

What was measured:
gastrointestinal mucosa [1] = conditions: rats; for Gastro-enteropathy (% incidence) without NEM: maximum tolerated dose
Experimental: The animals (rats) are distributed in the following groups (no. 10 animals for group):
• 1° group: treatment: only carrier (aqueous suspension 1% w/v of carboxymethylcellulose, dose: 5 ml/Kg when the drug is administered by os, or a physiologic solution when parenterally administered, i.e. by subcutaneous, intraperitoneal, intravenous or intermuscular route), • 2° group: treatment: carrier as above defined+NEM, B) Groups Treated with the Drug: • group I: treatment: carrier+drug, • group II: treatment: carrier+drug+NEM.
The administration routes are those known for the drug, and can be the oral or subcutaneous, intraperitoneal, intravenous or intramuscular route.
The animals are sacrificed after 24 hours and then one proceeds to the evaluation of the damage to the gastrointestinal mucosa.
Test 1—experimental model in vivo with N-ethylmaleimide (NEM): study of the gastric tolerability of some drugs screened as precursors of the compounds of the invention.
The animals (rats, weight about 200 g) are distributed in the following groups (No. 10 animals for group):
• 1° group: treatment: only carrier (aqueous suspension 1% w/v of carboxymethylcellulose, dose: 5 ml/Kg when the drug is administered by os, physiologic solution when by parenteral route), • 2° group: treatment: carrier+NEM, B) Groups Administered with Each Drug: • group I: treatment: carrier+drug, • group II: treatment: carrier+drug+NEM.
The drug is administered one hour later, in suspension in the carrier. Animals are sacrificed after 24 hours and evaluation of the damage to the gastrointestinal mucosa is made by counting the number of rats, inside each group, with lesions to the stomach at a visual inspection. The total number of said rats is then divided by the total number of rats of the group and multiplied by 100.

[2] = tested on: gastrointestinal mucosa, liver (GPT), vascular endothelium (blood pressure); conditions: rat, in vivo; for Gastroenteropathy % without L-NAME: 4 weeks
Experimental: The endothelial dysfunction is evaluated by determining the damage to the gastrointestinal mucosa, the hepatic damage and blood hypertension induced by administration of L-NAME.
The animals (rats) are divided in groups as herein below shown. The group receiving L-NAME is treated for 4 weeks with said compound dissolved at a concentration of 400 mg/liter in drinking water. The following groups are constituted (No. 10 animals for group):
(§1) • 1° group: only carrier (aqueous suspension 1% w/v of carboxymethylcellulose, dose: 5 ml/Kg when the drug is administered by os, physiologic solution when administered parenterally), • 2° group: carrier+L-NAME, B) Groups Administered with the Drug: • 3° group: carrier+drug, • 4° group: carrier+drug+L-NAME.
The administration routes are those known for the drug, and can be the oral or subcutaneous, intraperitoneal, intravenous or intramuscular route. […] The drug is administered once a day for 4 weeks.
At the end of the four weeks treatment access to water is prevented and after 24 hours the animals are sacrificed.
One hour before the sacrifice blood-pressure is determined, and a blood pressure increase is taken as an evaluation of the damage to vascular endothelium. […] The hepatic damage is determined by evaluation of the glutamic-pyruvic transaminase (GPT increase) after sacrifice.
Test 3—experimental in vivo model with N^w-nitro-L-arginine-methyl ester (L-NAME): gastric tolerability (gastrointestinal damage incidence), hepatic (GPT dosage, glutamic-pyruvic transaminase) and cardiovascular (blood pressure) of some drugs screened as precursors of the compounds of the invention.
The endothelial dysfunction is evaluated by determining the damage induced by L-NAME administration to the gastrointestinal mucosa, the hepatic damage (GPT increase), and the vascular endothelium or cardiovascular damage as blood hypertension.
The animals (rats, average weight 200 g) are divided in groups as herein below described. The group receiving L-NAME is treated for 4 weeks with said compound dissolved at the concentration of 400 mg/liter in drinking water. The following groups (No. 10 animals for group) are constituted:
as §1, with “group: treatment:” for “group:”, “by parenteral route),” for “administered parenterally),”, “Treated” for “Administered”
Each drug is administered once a day for 4 weeks.
The maximum tolerated dose of the drug being administered to the animals is determined by evaluating, in a separate dose scaling up experiment on untreated animals, the appearance in the animals of symptoms such as enteropathy, diarrhoea, depression, tremor, sedation.
At the end of the four weeks access to water is prevented and after 24 hours the animals are sacrificed.
One hour before the sacrifice blood pressure is determined and a blood pressure increase is taken as an indication of a damage being occurred to vascular endothelium.
The hepatic damage is determined by evaluation after the sacrifice of the glutamic-pyruvic transaminase (GPT increase).
The % gastric lesions have been determined as in Test 1.

[3] = tested on: human endothelial cells of the umbilical vein; experiment: Test 2 (CIP): apoptosis (DNA fragmentation) induced by cumene hydroperoxide in endothelial cells; type: cell-based; conditions: drug 10^-4 M, CIP 5 mM; for Apoptosis % with respect to the controls treated only with CIP / activity at 100 µM: one hour; for activity at 100 µM: Homo sapiens, Endothelial cell, 1 h, read-out: Apoptosis % with respect to the controls treated only with CIP
Experimental: Test 2 (CIP): Protection parameter of endothelial cell against the oxidative stress induced by cumene hydroperoxide (CIP).
Human endothelial cells of the umbilical vein are prepared according to an usual standard procedure. Fresh umbilical veins are filled with a 0.1% by weight collagenase solution and incubated at 37° C. for 5 minutes.
The cells are collected from the perfusate by centrifugation and harvested in culture flasks T-75, pretreated with human fibronectin. The cells are then harvested in the same medium, further added with 10 ng/ml of bovine hypothalamic growth factor. When the cells of the primary cell culture (i.e. that directly obtained from ex-vivo) form a single layer of confluent cells (about 8,000,000 cells/flask), the culture is stopped and the layers washed and trypsinized. The cellular suspensions are transferred into the wells of a cell culture plate having 24 wells, half of which is then additioned with the same culture medium containing the drug at a 10^−4M concentration, and harvested in a thermostat at 37° C. at a constant moisture. Only the cells coming from said first sub-cultures are used for the experiments with cumene hydroperoxide (CIP).
Before starting the test, the cellular culture medium is removed and the cellular layers are carefully washed with a physiologic solution at a temperature of 37° C. The wells of the culture plate are then incubated for one hour with CIP at a 5 mM concentration in the culture medium. […] 5 replicates for each sample are carried out.
Human endothelial cells of the umbilical vein are prepared according to a standard method. Fresh umbilical veins are filled with a collagenase solution 0.1% by weight and incubated at 37° C. for 5 minutes.
The cells are collected from the perfusate by centrifugation at 800 rpm and harvested in culture flasks T-75, pretreated with human fibronectin. Cells are then harvested in the same medium, added with bovine hypothalamic growth factor (100 ng/ml). When the cells of the primary cell culture (the cells directly removed from ex-vivo umbilical vein) form a single layer of confluent cells (about 8,000,000 cells/flask), harvesting is stopped and the layers are washed and trypsinized. The cellular suspensions are transferred into wells of a culture plate having 24 wells, half of said wells being added with the same culture medium containing the drug at a 10^−4M concentration, and harvested in a thermostat at 37° C. at a constant moisture (90%), CO2=5%. When the drug is not soluble in the culture medium, it is formerly dissolved in a small amount of dimethylsulphoxide. The maximum amount of dimethylsulphoxide which can be added to the culture medium is 0.5%. Only the cells coming from these first subcultures are used for the tests with cumene hydroperoxide (CIP).
Before starting the test, the cellular culture medium is removed and the cellular layers are carefully washed with a standard physiologic solution buffered with phosphate 0.1 M pH 7.0, at the temperature of 37° C. The content of each well is then incubated for one hour with a CIP suspension in the culture medium at a 5 mM concentration. Evaluation of the cellular damage (apoptosis) is carried out by determining the percent variation of the DNA fragmentation in the cultures containing the drug+CIP with respect to the controls treated with CIP only. […] The fluorescence of each sample was determined on 5 replicates. Statistic evaluation has been made with t Student test (p<0.01).

gastrointestinal mucosa [4] = conditions: male, Wistar, rat, in vivo, 6 h
Experimental: Gastric lesions induced by administration of the compounds of the invention in the confront of the corresponding drug precursor.
The animals have been sacrificed 6 hours after the administration. The gastrointestinal mucosa has been removed and inspected. The incidence of the gastrointestinal damage has been evaluated as described in experiment F1.

erythrocytes = experiment: Test 4A: inhibition of erythrocyte haemolysis induced by cumene hydroperoxide; conditions: 2 mM

CCCCC(C)(O)C/C=C/[C@H]1[C@H](O)CC(=O)[C@@H]1CCCCCCC(=O)OC (mixture of isomers) [Misoprostol]
Gastro-enteropathy (% incidence) without NEM (gastrointestinal mucosa [1]; 24 hours): 0%
Blood pressure % without L-NAME [2]: 100%
GPT % without L-NAME [2]: 100%
Gastroenteropathy % without L-NAME [2]: 0%

Nc1nc2c(ncn2COCCO)c(=O)[nH]1 [Acyclovir, aciclovir]
inhibition of apoptosis induced by CIP (in words, p<0.01) [3]: do not significantly inhibit apoptosis
Apoptosis % with respect to the controls treated only with CIP [3]: 95%

Nc1c(Br)cc(Br)cc1CN[C@H]1CC[C@H](O)CC1 [Ambroxol, ambroxol]
Gastro-enteropathy (% incidence) with NEM (gastrointestinal mucosa [1]; NEM 25 mg/kg s.c. one hour before drug, 24 hours): 80%
gastrointestinal damages / gastric lesions in rats treated with NEM + drug (in words) (gastrointestinal mucosa [1]; NEM 25 mg/kg s.c., drug at maximum tolerated dose): showed gastric lesions
Gastro-enteropathy (% incidence) without NEM (gastrointestinal mucosa [1]; 24 hours): 0%
inhibition of apoptosis induced by CIP (in words, p<0.01) [3]: inhibit apoptosis
Gastropathy % incidence (gastrointestinal mucosa [4]): 60%

O=C(O)COCCN1CCN(C(c2ccccc2)c2ccc(Cl)cc2)CC1 (centres unmarked) [Cetirizine, cetirizine]
inhibition of apoptosis induced by CIP (in words, p<0.01) [3]: do not significantly inhibit apoptosis

COC(=O)[C@H](c1ccccc1Cl)N1CCc2sccc2C1 [Clopidogrel]
inhibition of apoptosis induced by CIP (in words, p<0.01) [3]: do not significantly inhibit apoptosis
Apoptosis % with respect to the controls treated only with CIP [3]: 110%

O=C(O)Cc1ccccc1Nc1c(Cl)cccc1Cl [Diclofenac, diclofenac]
Gastropathy % incidence (gastrointestinal mucosa [4]): 70%

OCCNCCO [Diethanolamine]
inhibition of haemolysis induced by cumene hydroperoxide (in words) (erythrocytes): does not inhibit haemolysis
% Haemolysis inhibition (erythrocytes; preincubated 30 minutes, cumene hydroperoxide 270 μM, at Tmax): 2.5%

COc1cccc2c1C(=O)c1c(O)c3c(c(O)c1C2=O)C[C@@](O)(C(=O)CO)C[C@@H]3O[C@H]1C[C@H](N)[C@H](O)[C@H](C)O1 [Doxorubicin, doxorubicin]
activity at 100 µM [3]: 94%
Blood pressure % without L-NAME [2]: 120%
GPT % without L-NAME [2]: 195%
Gastroenteropathy % without L-NAME [2]: 30%

Nc1c(Br)cc(Br)cc1CN[C@H]1CC[C@H](OC(=O)CCCO[N+](=O)[O-])CC1 [Example 3, 4-(nitroxy)butyric acid 4-[(2-amino-3,5-dibromophenyl)methylamino] trans cyclohexyl ester]
Gastropathy % incidence (gastrointestinal mucosa [4]): 10%

O=C(CCCO[N+](=O)[O-])NCCCC(O)(P(=O)(O)O)P(=O)(O)O [Example 4, [4-[4-(nitroxy)butyroyl]amino-1-hydroxybutylidene]biphosphonic acid]
Gastropathy % incidence (gastrointestinal mucosa [4]): 10%

O=C(CCCO[N+](=O)[O-])Nc1c2c(nc3ccccc13)CCCC2 [Example 11]
Gastropathy % incidence (gastrointestinal mucosa [4]): 20%

COc1ccc2c(c1)c(CC(=O)O)c(C)n2C(=O)c1ccc(Cl)cc1 [Indomethacin]
Gastro-enteropathy (% incidence) without NEM (gastrointestinal mucosa [1]; 24 hours): 0%
inhibition of apoptosis induced by CIP (in words, p<0.01) [3]: not significantly different with respect to that of the controls
inhibition of apoptosis induced by CIP (in words, p<0.01) ([3]; listed as indomethacin): do not significantly inhibit apoptosis

Nc1ccc(O)c(C(=O)O)c1 [Mesalamine]
Gastro-enteropathy (% incidence) without NEM (gastrointestinal mucosa [1]; 24 hours): 0%
inhibition of apoptosis induced by CIP (in words, p<0.01) [3]: inhibit apoptosis; also recorded: inhibits the apoptosis induced by CIP

NC(=O)c1cccnc1 [Nicotinamide]
inhibition of apoptosis induced by CIP (in words, p<0.01) [3]: do not significantly inhibit apoptosis

COc1ccc2[nH]c([S+]([O-])Cc3ncc(C)c(OC)c3C)nc2c1 (centres unmarked) [Omeprazol]
Gastro-enteropathy (% incidence) without NEM (gastrointestinal mucosa [1]; 24 hours): 0%
inhibition of apoptosis induced by CIP (in words, p<0.01) [3]: do not significantly inhibit apoptosis
Blood pressure % without L-NAME [2]: 100%
GPT % without L-NAME [2]: 100%
Gastroenteropathy % without L-NAME [2]: 0%

CCC(C)(C)C(=O)O[C@H]1C[C@@H](C)C=C2C=C[C@H](C)[C@H](CCC3CC(O)CC(=O)O3)[C@H]21 (some centres unmarked) [Simvastatin, simvastatine]
activity at 100 µM [3]: 72%

CC1(C)S[C@@H]2[C@H](NC(=O)[C@H](N)c3ccccc3)C(=O)N2[C@H]1C(=O)O [ampicilline]
inhibition of apoptosis induced by CIP (in words, p<0.01) [3]: do not significantly inhibit apoptosis

enalapril
inhibition of apoptosis induced by CIP (in words, p<0.01) [3]: do not significantly inhibit apoptosis
Apoptosis % with respect to the controls treated only with CIP [3]: 80%

salbutamol
inhibition of apoptosis induced by CIP (in words, p<0.01) [3]: do not significantly inhibit apoptosis
Apoptosis % with respect to the controls treated only with CIP [3]: 90%
